Measured values taken from ChEMBL document CHEMBL5154810, “Development of Potent Immune Modulators Targeting Stimulator of Interferon Genes Receptor” (J Med Chem, 2022).
The source made the active and inactive calls. The calls are words filed in the database; no cut-off is given here.

Key:
[1] = Activation of IRF-mediated immune response in human THP1-Dual KO-STING cells co-expressing ISRE reporter assessed as normalized luciferase gene expression by measuring relative luciferase units at 50 uM incubated for 24 hrs by QUANTI Luc based microplate reader method; format: functional
[2] = test system: THP1-Dual; assay: Cytotoxicity against human wild type THP1-Dual cells assessed as residual cell viability by CellTiter96 Aqueous One Solution Cell Proliferation Assay; format: functional; parameters: concentration or dose not given beside the values
[3] = Cytotoxicity against human THP1-Dual KO-STING cells assessed as residual cell viability by CellTiter96 Aqueous One Solution Cell Proliferation Assay; format: functional; parameters: concentration or dose not given beside the values
[4] = target: T1, Stimulator of interferon genes protein (Mus musculus) (UniProt Q3TBT3); assay: Activation of STING mediated immune response in mouse RAW264.7 cells assessed as induction of IFNbeta secretion at 5000 to 20000 nM measured after 24 hrs by ELISA; format: cell-based; conditions: filed as activator, dose 5000-20000 nM
T1 sequence (whole entry): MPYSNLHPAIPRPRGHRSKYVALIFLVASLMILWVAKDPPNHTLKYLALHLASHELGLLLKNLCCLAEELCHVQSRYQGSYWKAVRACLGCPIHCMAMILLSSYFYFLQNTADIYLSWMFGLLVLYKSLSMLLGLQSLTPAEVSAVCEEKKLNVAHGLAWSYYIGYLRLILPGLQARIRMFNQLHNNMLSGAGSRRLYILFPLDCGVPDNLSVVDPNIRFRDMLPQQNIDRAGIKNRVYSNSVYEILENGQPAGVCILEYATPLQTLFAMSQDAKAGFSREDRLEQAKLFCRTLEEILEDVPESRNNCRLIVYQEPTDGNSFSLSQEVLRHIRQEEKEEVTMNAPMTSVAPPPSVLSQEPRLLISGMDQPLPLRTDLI

[5] = target: T2, Stimulator of interferon genes protein (Homo sapiens, UniProt Q86WV6); assay: Activation of STING mediated immune response in human THP-1 cells assessed as induction of IP-10 secretion at 500 to 5000 nM measured after 24 hrs by ELISA; format: cell-based; conditions: filed as activator, dose 500-5000 nM
T2 sequence (Q86WV6 whole entry): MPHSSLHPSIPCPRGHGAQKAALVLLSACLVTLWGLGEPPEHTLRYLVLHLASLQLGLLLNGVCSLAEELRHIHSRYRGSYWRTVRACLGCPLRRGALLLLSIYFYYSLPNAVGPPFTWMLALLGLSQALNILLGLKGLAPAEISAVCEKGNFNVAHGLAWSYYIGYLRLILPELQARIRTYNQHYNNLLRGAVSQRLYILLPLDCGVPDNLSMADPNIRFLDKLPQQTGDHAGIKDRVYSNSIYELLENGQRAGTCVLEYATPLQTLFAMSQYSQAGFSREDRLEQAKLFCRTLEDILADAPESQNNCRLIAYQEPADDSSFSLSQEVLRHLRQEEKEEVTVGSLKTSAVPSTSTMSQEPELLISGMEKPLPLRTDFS

[6] = target: T2, Stimulator of interferon genes protein; assay: Activation of STING mediated immune response in human THP-1 cells assessed as induction of IFNbeta secretion at 500 to 5000 nM measured after 24 hrs by ELISA; format: cell-based; conditions: filed as activator, dose 500-5000 nM
[7] = target: T1, Stimulator of interferon genes protein (Mus musculus); assay: Activation of STING mediated immune response in mouse RAW264.7 cells assessed as induction of IP-10 secretion at 5000 to 20000 nM measured after 24 hrs by ELISA; format: cell-based; conditions: filed as activator, dose 5000-20000 nM
[8] = target: T2, Stimulator of interferon genes protein; conditions: THP1-Dual, filed as activator, dose 50.0 µM, time 24.0 hrs
[9] = target: T2, Stimulator of interferon genes protein; assay: Binding affinity to recombinant human His-tagged STING by measuring fluorescent signals in the presence of d2 labelled STING wild type ligand by HTRF based microplate reader analysis
[10] = Solubility of the compound in DMSO at 50 to 100 uM incubated for 72 hrs; format: physicochemical; conditions: dose 50-100 µM
[11] = Induction of IP-10 secretion in human THP-1 cells assessed as maximal efficacy by ELISA relative to control; format: functional
[12] = test system: RAW264.7; assay: Induction of IL-6 secretion in mouse RAW264.7 cells at 2 uM incubated for 24 hrs by ELISA; format: functional, cell-based
[13] = test system: RAW264.7; assay: Induction of IP-10 secretion in mouse RAW264.7 cells at 0.64 to 10000 nM by ELISA; format: functional, cell-based; conditions: dose 0.64-10000 nM
[14] = test system: PBMC; assay: Induction of IFN-beta secretion in human PBMC cells at 1.6 to 1000 nM by ELISA; format: functional, cell-based; conditions: dose 1.6-1000 nM
[15] = test system: RAW264.7; assay: Induction of TNF-alpha secretion in mouse RAW264.7 cells at 0.625 uM incubated for 24 hrs by ELISA; format: functional, cell-based
[16] = target: Nuclear factor NF-kappa-B complex (Homo sapiens) (UniProt Q00653+P19838+Q04206); assay: Activation of NF-kappaB mediated pro-inflammatory effector proteins in human THP-1 cells at 2 to 10 nM incubated for 4 hrs by western blot analysis; format: cell-based; conditions: filed as activator, dose 2-10 nM
Nuclear factor NF-kappa-B complex (Homo sapiens), sequence (P19838 whole entry, looked up): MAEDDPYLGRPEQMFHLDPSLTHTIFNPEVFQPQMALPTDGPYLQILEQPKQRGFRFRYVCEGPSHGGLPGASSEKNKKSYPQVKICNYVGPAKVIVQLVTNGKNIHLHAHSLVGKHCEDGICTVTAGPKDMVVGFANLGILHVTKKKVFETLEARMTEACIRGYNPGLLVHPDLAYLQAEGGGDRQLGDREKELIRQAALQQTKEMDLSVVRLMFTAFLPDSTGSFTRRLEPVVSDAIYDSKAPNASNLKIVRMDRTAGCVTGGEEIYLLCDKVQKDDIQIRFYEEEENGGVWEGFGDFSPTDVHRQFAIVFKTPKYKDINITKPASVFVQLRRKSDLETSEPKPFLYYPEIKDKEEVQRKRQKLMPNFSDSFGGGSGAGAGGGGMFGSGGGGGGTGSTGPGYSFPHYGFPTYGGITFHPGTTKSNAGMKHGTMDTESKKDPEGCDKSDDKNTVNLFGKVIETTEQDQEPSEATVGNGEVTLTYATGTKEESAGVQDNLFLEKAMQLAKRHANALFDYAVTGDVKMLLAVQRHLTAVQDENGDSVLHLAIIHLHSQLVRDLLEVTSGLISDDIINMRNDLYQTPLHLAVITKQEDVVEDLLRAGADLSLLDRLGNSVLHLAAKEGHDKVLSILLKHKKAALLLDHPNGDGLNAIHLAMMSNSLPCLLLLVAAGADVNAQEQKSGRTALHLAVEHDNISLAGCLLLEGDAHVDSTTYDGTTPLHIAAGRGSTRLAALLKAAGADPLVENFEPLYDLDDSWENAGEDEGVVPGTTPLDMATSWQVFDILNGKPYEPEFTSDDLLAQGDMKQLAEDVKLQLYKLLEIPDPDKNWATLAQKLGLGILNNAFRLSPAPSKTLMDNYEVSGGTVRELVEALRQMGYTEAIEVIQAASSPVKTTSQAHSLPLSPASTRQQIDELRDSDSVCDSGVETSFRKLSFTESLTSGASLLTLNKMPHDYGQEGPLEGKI
Nuclear factor NF-kappa-B complex (Homo sapiens), sequence (Q00653 whole entry, looked up): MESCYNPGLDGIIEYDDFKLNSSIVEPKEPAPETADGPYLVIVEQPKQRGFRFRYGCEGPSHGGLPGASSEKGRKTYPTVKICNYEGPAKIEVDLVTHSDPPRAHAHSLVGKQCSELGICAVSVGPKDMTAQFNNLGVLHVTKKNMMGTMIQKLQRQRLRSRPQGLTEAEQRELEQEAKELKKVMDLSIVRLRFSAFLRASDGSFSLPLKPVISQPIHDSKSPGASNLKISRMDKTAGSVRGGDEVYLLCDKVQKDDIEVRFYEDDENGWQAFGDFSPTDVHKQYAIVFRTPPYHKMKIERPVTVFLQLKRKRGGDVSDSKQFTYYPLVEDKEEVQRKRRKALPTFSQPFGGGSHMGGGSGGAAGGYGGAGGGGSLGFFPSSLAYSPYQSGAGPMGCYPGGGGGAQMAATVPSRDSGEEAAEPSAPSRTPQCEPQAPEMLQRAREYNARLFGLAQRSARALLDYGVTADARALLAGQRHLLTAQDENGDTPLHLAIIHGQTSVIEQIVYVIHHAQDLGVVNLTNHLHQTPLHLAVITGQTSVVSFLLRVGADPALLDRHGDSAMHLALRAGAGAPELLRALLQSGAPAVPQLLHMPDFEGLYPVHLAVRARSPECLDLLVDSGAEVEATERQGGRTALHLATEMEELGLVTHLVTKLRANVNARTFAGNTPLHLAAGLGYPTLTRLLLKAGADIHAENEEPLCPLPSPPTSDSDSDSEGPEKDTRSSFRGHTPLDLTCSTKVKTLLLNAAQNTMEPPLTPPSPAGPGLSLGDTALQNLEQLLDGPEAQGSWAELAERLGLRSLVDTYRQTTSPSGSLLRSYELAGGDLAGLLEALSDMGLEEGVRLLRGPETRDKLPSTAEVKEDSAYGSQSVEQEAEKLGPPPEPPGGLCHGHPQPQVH
Nuclear factor NF-kappa-B complex (Homo sapiens), sequence (Q04206 whole entry, looked up): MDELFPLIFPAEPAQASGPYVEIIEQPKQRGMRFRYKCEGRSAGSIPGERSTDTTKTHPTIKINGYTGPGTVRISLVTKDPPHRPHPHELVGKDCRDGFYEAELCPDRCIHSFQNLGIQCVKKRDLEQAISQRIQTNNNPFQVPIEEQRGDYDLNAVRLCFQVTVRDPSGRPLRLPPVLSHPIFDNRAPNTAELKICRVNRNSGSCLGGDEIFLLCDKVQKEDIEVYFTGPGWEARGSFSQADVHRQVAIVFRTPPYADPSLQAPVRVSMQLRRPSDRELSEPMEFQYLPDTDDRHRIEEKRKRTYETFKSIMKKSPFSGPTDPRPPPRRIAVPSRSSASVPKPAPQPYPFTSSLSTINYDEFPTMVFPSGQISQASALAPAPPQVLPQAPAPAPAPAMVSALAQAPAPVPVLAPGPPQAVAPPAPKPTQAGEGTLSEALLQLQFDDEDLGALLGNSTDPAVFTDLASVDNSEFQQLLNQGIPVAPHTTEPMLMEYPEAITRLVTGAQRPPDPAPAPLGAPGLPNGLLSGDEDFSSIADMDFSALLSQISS

[17] = test system: RAW264.7; assay: Activation of NF-kappaB mediated pro-inflammatory effector proteins in mouse RAW264.7 cells at 100 to 500 nM for incubated for 3 hrs by western blot analysis; format: cell-based; conditions: filed as activator, dose 100-500 nM
[18] = Terminal half life in BALB/c mouse at 3 mg/kg, iv by LC-MS/MS analysis; format: ADME, organism-based; conditions: in vivo, read-out: beta t1/2 (converted)
[19] = Volume of distribution at steady state in BALB/c mouse at 3 mg/kg, iv by LC-MS/MS analysis; format: ADME, organism-based; conditions: in vivo, read-out: Vdss
[20] = Clearance in BALB/c mouse at 3 mg/kg, iv by LC-MS/MS analysis; format: ADME, organism-based; conditions: BALB/c, in vivo
[21] = AUClast in BALB/c mouse at 3 mg/kg, iv by LC-MS/MS analysis; format: ADME, organism-based; parameters: time 0 - last, dose 3 mg/kg, route iv; conditions: in vivo
[22] = AUCinfinity in BALB/c mouse at 3 mg/kg, iv by LC-MS/MS analysis; format: ADME, organism-based; parameters: time infinity, dose 3 mg/kg, route iv; conditions: BALB/c, in vivo
[23] = test system: CT26; assay: Antitumor immunity activity against mouse CT26 cells xenografted in BALB/c mouse model assessed as tumor growth inhibition at 1.5 mg/kg, iv measured after 8 days; format: functional, organism-based; conditions: time 8.0 day
[24] = Toxicity in BALB/c mouse xenografted with mouse CT26 cells assessed as effect on body weight at 1.5 mg/kg, iv measured after 8 days; format: organism-based; conditions: in vivo, 192 h, time 8 day
[25] = test system: CT26; assay: Immunological memory derived cancer inhibition in mouse CT26 cells inoculated in 1.5 mg/kg, iv for 8 days treated/cured BALB/c mouse model assessed as tumor recurrence followed by re-inoculation of cells; format: functional, organism-based; conditions: time 8.0 day
[26] = test system: CT26; assay: Antitumor immunity activity against mouse CT26 cells xenografted in BALB/c mouse model assessed as tumor growth inhibition at 0.015 mg/kg, iv measured after 8 days; format: functional, organism-based; conditions: time 8.0 day
[27] = Toxicity in BALB/c mouse xenografted with mouse CT26 cells assessed as body weight loss at 0.015 mg/kg, iv measured after 8 days; format: organism-based; conditions: in vivo, 192 h, time 8 day

Question: For CCn1nc(C)cc1C(=O)/N=c1\[nH]c2cc(C(N)=O)ccc2n1CCCCn1/c(=N/C(=O)c2cc(C)nn2CC)[nH]c2cc(C(N)=O)ccc21, which RLU [1] is on record?
Answer: The RLU was 0.8.

Question: And the Activity [2]?
Answer: The Activity was 97.4%.

Question: And the Activity [3]?
Answer: The Activity was 93.8%.

Question: What about the Activity [4] of the same compound?
Answer: The Activity was “Active”.

Question: What about the Activity [5] of the same compound?
Answer: Its Activity is “Active”.

Question: And the Activity [6]?
Answer: Its Activity is “Active”.

Question: And the Activity [7]?
Answer: Its Activity is “Active”.

Question: And the RLU [8]?
Answer: Its RLU is 97.8.

Question: Which results are given for CCn1nc(C)cc1C(=O)Nc1nc2cc(C(N)=O)ccc2n1CCCCn1c(NC(=O)c2cc(C)nn2CC)nc2cc(C(N)=O)ccc21?
Answer: IC50 [9]: 6.16 nM; solubility [10]: Insoluble

Question: Which results are given for CCn1nc(C)cc1C(=O)NCCCOc1cc(C(N)=O)cc2nc(NC(=O)c3cc(C)nn3CC)n(C/C=C/Cn3c(NC(=O)c4cc(C)nn4CC)nc4cc(C(N)=O)cc(OC)c43)c12?
Answer: Emax [11]: 325%; RLU [1]: 0.8; Activity [12]: Active; Activity [13]: Active; Activity [14]: Active; Activity [15]: Active; Activity [16]: Active; Activity [17]: Active; half-life [18]: 1.75 h; Vd [19]: 1.81 L/kg; clearance [20]: 12 mL/min/kg; AUC(0-t) [21]: 4240 ng·h/mL; AUC(0-inf) [22]: 4300 ng·h/mL; Activity [23]: Active; Activity [24]: Non-Toxic; Activity [25]: Active; Activity [26]: Active; Activity [27]: Non-Toxic; RLU [8]: 100
